# Source: patent US20070155730A1, “Benzodiazepine And Benzopiperazine Analog Inhibitors Of Histone Deacetylase” (METHYLGENE, INC., priority 2005, published 2007)
# Molecular target: histone deacetylase (HDAC)
# Assay: Inhibition of Histone Deacetylase Enzymatic Activity
# Assay type: biochemical
# Conditions: substrate Boc-Lys(Ac)-AMC, Fluor-de-Lys developer, 37° C., 20 min; against one or more of HDAC-1 to HDAC-11, SirT1 to SirT7 (isoform not given); read-out: HDAC Inhibitory Activity (IC50)
# Method: The following protocol is used to assay the compounds of the invention. In the assay, the buffer used is 25 mM HEPES, pH 8.0, 137 mM NaCl, 2.7 mM KCl, 1 mM MgCl2 and the substrate is Boc-Lys(Ac)-AMC in a 50 mM stock solution in DMSO. The enzyme stock solution is 4.08 μg/mL in buffer.
# The compounds are pre-incubated (2 μl in DMSO diluted to 13 μl in buffer for transfer to assay plate) with enzyme (20 μl of 4.08 μg/mL) for 10 min at room temperature (35 μl pre-incubation volume). The mixture is pre-incubated for 5 min at room temperature. The reaction is started by bringing the temperature to 37° C. and adding 16 μl substrate. Total reaction volume is 50 μl. […] A plate is incubated in the dark for 10 min at room temperature before reading (λEX=360 nm, λEm=470 nm, Cutoff filter at 435 nm).
# In the table, “A” indicates inhibitory activity at a concentration of <0.05 μM; “B” indicates inhibitory activity at a concentration >0.05 μM but <0.5 μM, “C” indicates inhibitory activity at >0.5 μM but <2 μM and “D” indicates inhibitory activity at a concentration of >2 μM but <10 μM.
row,Compound,IC50 [nM]
1,"COc1ccc(CN2c3ccccc3NC(=O)[C@H]2CCC(=O)CCC(=O)NO)cc1 [Compound 43, 6-((R)-1-(4-methoxybenzyl)-1,2,3,4-tetrahydro-3-oxoquinoxalin-2-yl)-N-hydroxy-4-oxy-hexanamide]",2000 to 10000
2,"COc1ccc(CN2c3ccccc3NC(=O)C2CCCCCC(=O)Nc2cc(-c3cccs3)ccc2N)cc1 (stereo not drawn) [Compound 49, 6-(1-(4-methoxybenzyl)-1,2,3,4-tetrahydro-3-oxoquinoxalin-2-yl)-N-(2-amino-5-(thiophen-2-yl)phenyl)hexanamide]",50 to 500
3,"O=C(NO)c1ccc(CN2c3ccccc3NC(=O)[C@@H]2Cc2cccs2)cc1 [Compound 54a1, 4-(((S)-2,3-Dihydro-2-oxo-3-((thiophen-2-yl)methyl)quinoxalin-4(1H)-yl)methyl)-N-hydroxybenzamide]",50 to 500
4,"O=C(NO)c1ccc(CN2c3ccccc3NC(=O)[C@H]2Cc2cccs2)cc1 [Compound 54a2, 4-(((R)-2,3-Dihydro-2-oxo-3-((thiophen-2-yl)methyl)quinoxalin-4(1H)-yl)methyl)-N-hydroxybenzamide]",< 50
5,"O=C1CN(Cc2ccc(C(=O)NO)cc2)c2ccccc2N1 [Compound 54b1, N-hydroxy-4-((3-oxo-3,4-dihydroquinoxalin-1(2H)-yl)methyl)-benzamide]",< 50
6,"O=C(NO)c1ccc(CN2c3ccccc3NC(=O)[C@H]2Cc2c[nH]c3ccccc23)cc1 [Compound 54b2, (R)-4-((2-((1H-indol-3-yl)methyl)-3-oxo-3,4-dihydroquinoxalin-1(2H)-yl)methyl)-N-hydroxybenzamide]",< 50
7,"O=C(NO)c1ccc(CN2c3ccccc3NC(=O)[C@@H]2Cc2c[nH]c3ccccc23)cc1 [Compound 54b3, (S)-4-((2-((1H-indol-3-yl)methyl)-3-oxo-3,4-dihydroquinoxalin-1(2H)-yl)methyl)-N-hydroxybenzamide]",< 50
8,"O=C(NO)c1ccc(CN2c3ccccc3NC(=O)[C@@H]2Cc2ccccc2)cc1 [Compound 54b4, (S)-4-((2-benzyl-3-oxo-3,4-dihydroquinoxalin-1(2H)-yl)methyl)-N-hydroxybenzamide]",< 50
9,"O=C(NO)c1ccc(CN2c3ccccc3NC(=O)[C@H]2Cc2ccccc2)cc1 [Compound 54b5, (R)-4-((2-benzyl-3-oxo-3,4-dihydroquinoxalin-1(2H)-yl)methyl)-N-hydroxybenzamide]",< 50
10,"O=C(NO)c1ccc(CN2c3ccccc3NC(=O)[C@H]2CCc2ccccc2)cc1 [Compound 54b7, (R)—N-hydroxy-4-((3-oxo-2-phenethyl-3,4-dihydroquinoxalin-1(2H)-yl)methyl)benzamide]",< 50
11,"O=C(NO)c1ccc(CN2c3ccccc3NC(=O)[C@H]2CC2CCCCC2)cc1 [Compound 54b8, (R)-4-((2-(cyclohexylmethyl)-3-oxo-3,4-dihydroquinoxalin-1(2H)-yl)methyl)-N-hydroxybenzamide]",50 to 500
12,"CC(C)(C)OC(=O)NCCCC[C@@H]1C(=O)Nc2ccccc2N1Cc1ccc(C(=O)NO)cc1 [Compound 54b9, (R)-tert-butyl 4-(1-(4-(hydroxycarbamoyl)benzyl)-3-oxo-1,2,3,4-tetrahydroquinoxalin-2-yl)butylcarbamate]",< 50
13,"O=C(NO)c1ccc(CN2c3ccccc3NC(=O)[C@H]2Cc2ccc3ccccc3c2)cc1 [Compound 54b10, (R)—N-hydroxy-4-((2-(naphthalen-2-ylmethyl)-3-oxo-3,4-dihydroquinoxalin-1(2H)-yl)methyl)benzamide]",< 50
14,"CC(C)(C)Oc1ccc(C[C@@H]2C(=O)Nc3ccccc3N2Cc2ccc(C(=O)NO)cc2)cc1 [Compound 54b11, (R)-4-((2-(4-tert-butoxybenzyl)-3-oxo-3,4-dihydroquinoxalin-1(2H)-yl)methyl)-N-hydroxybenzamide]",< 50
15,"CC(C)(C)OC(=O)CC[C@@H]1C(=O)Nc2ccccc2N1Cc1ccc(C(=O)NO)cc1 [Compound 54b12, (R)-tert-butyl 3-(1-(4-(hydroxycarbamoyl)benzyl)-3-oxo-1,2,3,4-tetrahydroquinoxalin-2-yl)propanoate]",< 50
16,"O=C(NO)c1ccc(CN2c3ccccc3NC(=O)[C@H]2Cc2csc3ccccc23)cc1 [Compound 54b13, (R)-4-((2-(benzo[b]thiophen-3-ylmethyl)-3-oxo-3,4-dihydroquinoxalin-1(2H)-yl)methyl)-N-hydroxybenzamide]",< 50
17,"O=C(NO)c1ccc(CN2c3ccccc3NC(=O)[C@@H]2Cc2csc3ccccc23)cc1 [Compound 54b14, (S)-4-((2-(benzo[b]thiophen-3-ylmethyl)-3-oxo-3,4-dihydroquinoxalin-1(2H)-yl)methyl)-N-hydroxybenzamide]",50 to 500
18,"O=C(NO)c1ccc(CN2c3ccccc3NC(=O)[C@H]2Cc2ccc(F)cc2)cc1 [Compound 54b15, (R)-4-((2-(4-fluorobenzyl)-3-oxo-3,4-dihydroquinoxalin-1(2H)-yl)methyl)-N-hydroxybenzamide]",< 50
19,"O=C(NO)c1ccc(CN2c3ccccc3NC(=O)[C@H]2Cc2ccc(C(F)(F)F)cc2)cc1 [Compound 54b17, (R)-4-((2-(4-trifluoromethylbenzyl)-3-oxo-3,4-dihydroquinoxalin-1(2H)-yl)methyl)-N-hydroxybenzamide]",50 to 500
20,"O=C(NO)c1ccc(CN2c3ccccc3NC(=O)[C@H]2Cc2cccc(C(F)(F)F)c2)cc1 [Compound 54b19, (R)—N-hydroxy-4-((2-(3-(trifluoromethyl)benzyl)-3-oxo-3,4-dihydroquinoxalin-1(2H)-yl)methyl)benzamide]",50 to 500
21,"O=C(NO)c1ccc(CN2c3ccccc3NC(=O)[C@H]2Cc2ccoc2)cc1 [Compound 54b20, (R)-4-((2-(furan-3-ylmethyl)-3-oxo-3,4-dihydroquinoxalin-1(2H)-yl)methyl)-N-hydroxybenzamide]",< 50
22,"O=C(NO)c1ccc(CN2c3ccccc3NC(=O)[C@H]2Cc2cccnc2)cc1 [Compound 54b21, (R)—N-hydroxy-4-((3-oxo-2-(pyridin-3-ylmethyl)-3,4-dihydroquinoxalin-1(2H)-yl)methyl)benzamide]",< 50
23,"O=C(NO)c1ccc(CN2c3ccccc3NC(=O)[C@H]2Cc2cccs2)cc1 [Compound 56a, 4-(((R)-2,3-Dihydro-2-oxo-3-((thiophen-2-yl)methyl)quinoxalin-4(1H)-yl)methyl)-N-hydroxybenzamide]",500 to 2000
24,"Nc1ccc(-c2cccs2)cc1NC(=O)c1ccc(-c2ccc3c(c2)NC(=O)[C@H](Cc2c[nH]c4ccccc24)N3)cc1 [Compound 62, 4-((S)-2-((1H-indol-3-yl)methyl)-1,2,3,4-tetrahydro-3-oxoquinoxalin-6-yl)-N-(2-amino-5-(thiophen-2-yl)phenyl)benzamide]",50 to 500

# Continued, values first:
row,IC50 [nM],Compound
1,2000 to 10000,"CC(C)[C@@H]1Nc2ccc(NC(=O)CCCCCCC(=O)Nc3ccccc3N)cc2NC1=O [Compound 23a, N1-(2-Aminophenyl)-N8—((S)-1,2,3,4-tetrahydro-2-isopropyl-3-oxoquinoxalin-6-yl)octanediamide]"
2,50 to 500,"CC(C)[C@@H]1Nc2ccc(NC(=O)CCCCCCC(=O)NO)cc2NC1=O [Compound 24a, N1—((S)-1,2,3,4-Tetrahydro-2-isopropyl-3-oxoquinoxalin-6-yl)-N8-hydroxyoctanediamide]"
3,< 50,"CC(C)[C@H]1Nc2ccc(NC(=O)CCCCCCC(=O)NO)cc2NC1=O [Compound 24e, N1—((R)-1,2,3,4-Tetrahydro-2-isopropyl-3-oxoquinoxalin-6-yl)-N8-hydroxyoctanediamide]"
4,< 50,"O=C(CCCCCCC(=O)Nc1ccc2c(c1)NC(=O)[C@@H](Cc1c[nH]c3ccccc13)N2)NO [Compound 24f, N1—((R)-2-((1H-Indol-3-yl)methyl)-1,2,3,4-tetrahydro-3-oxoquinoxalin-6-yl)-N8-hydroxyoctanediamide]"
5,50 to 500,"COc1ccc(CN2c3ccc(NC(=O)CCCCCCC(=O)NO)cc3NC(=O)[C@H]2C(C)C)cc1 [Compound 26e, N1—((R)-1-(4-Methoxybenzyl)-1,2,3,4-tetrahydro-2-isopropyl-3-oxoquinoxalin-6-yl)-N8-hydroxyoctanediamide]"
6,50 to 500,"CC(C)[C@@H]1Nc2ccc(NC(=O)CCCCCCC(=O)c3ncco3)cc2NC1=O [Compound 29a, N—((S)-1,2,3,4-Tetrahydro-2-isopropyl-3-oxoquinoxalin-6-yl)-8-(oxazol-2-yl)-8-oxooctanamide]"
7,50 to 500,"COc1ccc(CN2c3ccccc3NC(=O)C2CCCCCC(=O)NO)cc1 (stereo not drawn) [Compound 47a, 6-(1-(4-methoxybenzyl)-1,2,3,4-tetrahydro-3-oxoquinoxalin-2-yl)-N-hydroxyhexanamide]"
8,2000 to 10000,"COc1ccc(CN2c3ccccc3NC(=O)C2CCCCCC(=O)Nc2ccccc2N)cc1 (stereo not drawn) [Compound 47b, 6-(1-(4-methoxybenzyl)-1,2,3,4-tetrahydro-3-oxoquinoxalin-2-yl)-N-(2-aminophenyl)hexanamide]"
9,50 to 500,"Nc1ccccc1NC(=O)c1ccc(CN2c3ccccc3NC(=O)[C@@H]2Cc2cccs2)cc1 [Compound 54c, (S)—N-(2-aminophenyl)-4-((3-oxo-2-(thiophen-2-ylmethyl)-3,4-dihydroquinoxalin-1(2H)-yl)methyl)benzamide]"
